Experimental data published in patent US6638973B2, “Taxane formulations” (FSU Research Foundation, Inc., priority 2000, dated 2003).
Read-outs that look alike come from different tables or passages of the source.

Experiments:
[1] = tested on: HCT116 cells; assay: In vitro cytotoxicity measured by the cell colony formation assay; assay type: cell-based; conditions: colonies counted after 7 days, read-out: IN VITRO ID 50 (nm) HCT116
Procedure, shortened: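 Colony-forming survival was scored 7 days after a 72 h, 37 °C compound exposure followed by washout into fresh medium.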

[2] = intravenous, concentrations required to deliver therapeutic doses of paclitaxel; cited from earlier work
[3] = HCT116 colony formation, 72 h drug incubation, Example 5, C-7 ester/C-10 hydroxy taxanes
[4] = HCT116 cells, 72 h drug incubation, ID50 = drug concentration producing 50% inhibition of colony formation
[5] = HCT116 cells, 72 h incubation with drug, ID50 = drug concentration producing 50% inhibition of colony formation
[6] = HCT116 colony formation, 72 h drug incubation, Example 20, C-10 substituted acetate/C-7 hydroxy taxanes
[7] = Homo sapiens, HCT-116, HCT116 colony formation, 72 h drug incubation, Example 5, C-7 ester/C-10 hydroxy taxanes

CCC(C)(C)OC(=O)N[C@@H](c1ccco1)[C@@H](O)C(=O)O[C@H]1C[C@@]2(O)[C@@H](OC(=O)c3ccccc3)C3[C@](C)(C(=O)[C@H](O)C(=C1C)C2(C)C)[C@@H](OC(=O)COC(C)=O)C[C@H]1OC[C@@]31OC(C)=O (stereo partly drawn) [Compound 6353]
IC50 ([1]; HCT116 colony formation, 72 h drug incubation, Example 15, C-7 substituted acetate/C-10 hydroxy taxanes): < 1 nM

CCC(=O)O[C@H]1C[C@H]2OC[C@@]2(OC(C)=O)C2[C@H](OC(=O)c3ccccc3)[C@]3(O)C[C@H](OC(=O)[C@H](O)[C@@H](NC(=O)OC(C)(C)C)c4nccs4)C(C)=C([C@@H](O)C(=O)[C@@]21C)C3(C)C (stereo partly drawn) [Compound 6363]
IC50 [1, 3]: < 10 nM

CCC(C)(C)OC(=O)N[C@@H](c1ccco1)[C@@H](O)C(=O)O[C@H]1C[C@@]2(O)[C@@H](OC(=O)c3ccccc3)C3[C@](C)(C(=O)[C@H](O)C(=C1C)C2(C)C)[C@@H](OC(=O)Nc1ccccc1)C[C@H]1OC[C@@]31OC(C)=O (stereo partly drawn) [Compound 6399]
IC50 [1, 4]: < 10 nM

CCC(C)(C)OC(=O)N[C@@H](c1ccco1)[C@@H](O)C(=O)O[C@H]1C[C@@]2(O)[C@@H](OC(=O)c3ccccc3)C3[C@](C)(C(=O)[C@H](O)C(=C1C)C2(C)C)[C@@H](OC(=O)Nc1ccc(F)c(F)c1)C[C@H]1OC[C@@]31OC(C)=O (stereo partly drawn) [Compound 6404]
IC50 [1, 4]: < 10 nM

CCC(=O)O[C@H]1C[C@H]2OC[C@@]2(OC(C)=O)C2[C@H](OC(=O)c3ccccc3)[C@]3(O)C[C@H](OC(=O)[C@H](O)[C@@H](NC(=O)OC(C)(C)CC)c4ccco4)C(C)=C([C@@H](O)C(=O)[C@@]21C)C3(C)C (stereo partly drawn) [Compound 6424]
IC50 [1, 3]: 21.7 nM

CCOC(=O)O[C@H]1C(=O)[C@@]2(C)C([C@H](OC(=O)c3ccccc3)[C@]3(O)C[C@H](OC(=O)[C@H](O)[C@@H](NC(=O)C(C)C)c4ccco4)C(C)=C1C3(C)C)[C@]1(OC(C)=O)CO[C@@H]1C[C@@H]2O (stereo partly drawn) [Compound 6466]
IC50 [1, 5]: < 10 nM

CCC(C)(C)OC(=O)NC(c1ccco1)C(O)C(=O)OC1CC2(O)C(OC(=O)c3ccccc3)C3C4(OC(C)=O)COC4CC(O)C3(C)C(=O)C(OC(=O)COC)C(=C1C)C2(C)C (stereo not drawn) [Compound 6515, N-Debenzoyl-N-tert-amyloxycarbonyl-3′-desphenyl-3′-(2-furyl)-10-methoxyacetyl taxol]
IC50 [1, 6]: < 1 nM

CCC(=O)O[C@H]1C(=O)[C@@]2(C)C([C@H](OC(=O)c3ccccc3)[C@]3(O)C[C@H](OC(=O)[C@H](O)[C@@H](NC(=O)OC(C)(C)CC)c4ccco4)C(C)=C1C3(C)C)[C@]1(OC(C)=O)CO[C@@H]1C[C@@H]2O (stereo partly drawn) [Compound 6522]
IC50 ([1]; HCT116 colony formation, 72 h drug incubation, Example 10, C-10 ester/C-7 hydroxy taxanes): < 1 nM

C/C=C/C(=O)N[C@@H](c1cccs1)[C@@H](O)C(=O)O[C@H]1C[C@@]2(O)[C@@H](OC(=O)c3ccccc3)C3[C@](C)(C(=O)[C@H](O)C(=C1C)C2(C)C)[C@@H](OC(=O)OCc1ccccc1)C[C@H]1OC[C@@]31OC(C)=O (stereo partly drawn) [Compound 6566]
IC50 [1, 5]: < 10 nM

CCC(C)(C)OC(=O)N[C@@H](c1ccco1)[C@@H](O)C(=O)O[C@H]1C[C@@]2(O)[C@@H](OC(=O)c3ccccc3)C3[C@](C)(C(=O)[C@H](OC(=O)COC(C)=O)C(=C1C)C2(C)C)[C@@H](O)C[C@H]1OC[C@@]31OC(C)=O (stereo partly drawn) [Compound 6577]
IC50 [1, 6]: < 1 nM

C/C=C/C(=O)O[C@H]1C[C@H]2OC[C@@]2(OC(C)=O)C2[C@H](OC(=O)c3ccccc3)[C@]3(O)C[C@H](OC(=O)[C@H](O)[C@@H](NC(=O)OC(C)(C)C)c4cccs4)C(C)=C([C@@H](O)C(=O)[C@@]21C)C3(C)C (stereo partly drawn) [Compound 6686]
IC50 [1, 3]: < 1 nM

CCNC(=O)O[C@H]1C[C@H]2OC[C@@]2(OC(C)=O)C2[C@H](OC(=O)c3ccccc3)[C@]3(O)C[C@H](OC(=O)[C@H](O)[C@@H](NC(=O)OC(C)(C)C)c4ccco4)C(C)=C([C@@H](O)C(=O)[C@@]21C)C3(C)C (stereo partly drawn) [Compound 6696]
IC50 [1, 4]: < 1 nM

CC(=O)O[C@@]12CO[C@@H]1C[C@H](O)[C@@]1(C)C(=O)[C@H](O)C3=C(C)[C@@H](OC(=O)[C@H](O)[C@@H](NC(=O)OC(C)(C)C)c4ccccc4)C[C@@](O)([C@@H](OC(=O)c4ccccc4)[C@H]21)C3(C)C [docetaxel, reference compound]
IC50 [1, 7]: 0.6 nM

CC(=O)O[C@H]1C(=O)[C@@]2(C)[C@H]([C@H](OC(=O)c3ccccc3)[C@]3(O)C[C@H](OC(=O)[C@H](O)[C@@H](NC(=O)c4ccccc4)c4ccccc4)C(C)=C1C3(C)C)[C@]1(OC(C)=O)CO[C@@H]1C[C@@H]2O [taxol, paclitaxel, reference compound]
IC50 [1, 7]: 2.1 nM

CC(=O)OCC(COC(C)=O)OC(C)=O [triacetin, glyceryl triacetate]
toxicity to mice [2]: toxic
